Measurements reported in article PMC10424185, “C-2 Thiophenyl Tryptophan Trimers Inhibit Cellular Entry of SARS-CoV-2 through Interaction with the Viral Spike (S) Protein” (Journal of Medicinal Chemistry, 2023).
“Also recorded” adds a separate entry of the source. Where two headings read alike, the source gives them in different places.

Assays:
[1] = in vitro; details: human
[2] = tested on: VSV-S (pseudotyped VSV carrying the S protein of Wuhan-Hu-1 SARS-CoV-2); assay: microbe, parasite or virus in culture; assay type: cell-based
[3] = tested on: VSV-S (pseudotyped VSV carrying the S protein of Wuhan-Hu-1 SARS-CoV-2); assay: microbe, parasite or virus in culture; assay type: cell-based; details: read-out: IC50 (concentration at which virus infection is reduced by 50%), VSV-S in A549-ACE2-TMPRSS2 cells
[4] = in vitro; details: African green monkey
[5] = target: SARS-CoV-2 RBD (Severe acute respiratory syndrome coronavirus 2, UniProt P0DTC2); assay type: binding
[6] = target: binding of human ACE2 catalytic domain to RBD (Severe acute respiratory syndrome coronavirus 2, UniProt P0DTC2); parameters: species or system SARS-CoV-2 / human
[7] = tested on: VSV-SOmicron (S protein of SARS-CoV-2 Omicron BA.1); assay: organism not typed; assay type: cell-based
[8] = tested on: VSV-SWuhan-Hu-1; assay: microbe, parasite or virus in culture; assay type: cell-based, SARS-CoV-2; details: Vesicular stomatitis virus, VeroE6/TMPRSS2, read-out: IC50 ± SD, pseudotyped VSV carrying S of Wuhan-Hu-1
[9] = Vesicular stomatitis virus, Vero C1008, read-out: IC50 (concentration at which virus infection is reduced by 50%), VSV-S in Vero E6 cells
[10] = read-out: IC50 (concentration at which virus infection is reduced by 50%), VSV-S in Vero E6 cells
[11] = VeroE6/TMPRSS2, read-out: IC50 ± SD, pseudotyped VSV carrying S of Omicron BA.1

SMILES	CC50 [1]	IC50 [2, 9]	IC50 [2, 10]	IC50 ([3]; Vesicular stomatitis virus)	IC50 [3]	CC50 [4]	effect on thermofluor fluorescence profile / thermal stability of RBD (in words) [5]	antiviral activity in the VSV-S assay (in words) [2]	primary HTS screening result (in words) [2]	increase of ACE2 concentrations needed for binding to the RBD [6]	IC50 [7, 11]	IC50 ([7]; read-out: IC50 ± SD, pseudotyped VSV carrying S of Omicron BA.1)	IC50 [8]
O=C(O)CCCCC(=O)NCC(=O)NC(CCC(=O)NC(Cc1c(Sc2ccc([N+](=O)[O-])cc2)[nH]c2ccccc12)C(=O)O)(CCC(=O)NC(Cc1c(Sc2ccc([N+](=O)[O-])cc2)[nH]c2ccccc12)C(=O)O)CCC(=O)NC(Cc1c(Sc2ccc([N+](=O)[O-])cc2)[nH]c2ccccc12)C(=O)O (stereo not shown) [Compound 61]	> 100 µM	~2 µM	2.1 ± 1.5 µM	~2 µM	2.3 ± 0.8 µM	> 100 µM	shift of the curve toward lower temperatures	–	–	–	–	–	–
CCCCCCCCCCCC(=O)NCC(=O)NC(CCC(=O)NC(Cc1c(Sc2ccc([N+](=O)[O-])cc2)[nH]c2ccccc12)C(=O)O)(CCC(=O)NC(Cc1c(Sc2ccc([N+](=O)[O-])cc2)[nH]c2ccccc12)C(=O)O)CCC(=O)NC(Cc1c(Sc2ccc([N+](=O)[O-])cc2)[nH]c2ccccc12)C(=O)O (stereo not shown) [Compound 59]	> 100 µM	30.3 ± 5.3 µM	–	44.4 ± 23.4 µM	–	> 100 µM	–	–	–	–	–	–	–
NCC(=O)NC(CCC(=O)NC(Cc1c(Sc2ccc(F)cc2)[nH]c2ccccc12)C(=O)O)(CCC(=O)NC(Cc1c(Sc2ccc(F)cc2)[nH]c2ccccc12)C(=O)O)CCC(=O)NC(Cc1c(Sc2ccc(F)cc2)[nH]c2ccccc12)C(=O)O (stereo not shown) [Compound 40]	> 100 µM	33 ± 1.3 µM	–	46.9 ± 17.5 µM	–	> 100 µM	–	–	–	–	–	–	–
NCC(=O)NC(CCC(=O)NC(Cc1c(C(=O)c2ccc([N+](=O)[O-])cc2)[nH]c2ccccc12)C(=O)O)(CCC(=O)NC(Cc1c(C(=O)c2ccc([N+](=O)[O-])cc2)[nH]c2ccccc12)C(=O)O)CCC(=O)NC(Cc1c(C(=O)c2ccc([N+](=O)[O-])cc2)[nH]c2ccccc12)C(=O)O (stereo not shown) [Compound 50]	–	> 50 µM	–	–	–	–	–	antiviral activity is also lost	–	–	–	–	–
O=C(CCOCC(COCCC(=O)NC(Cc1c(Sc2ccc([N+](=O)[O-])cc2)[nH]c2ccccc12)C(=O)O)(COCCC(=O)NC(Cc1c(Sc2ccc([N+](=O)[O-])cc2)[nH]c2ccccc12)C(=O)O)COCCC(=O)NC(Cc1c(Sc2ccc([N+](=O)[O-])cc2)[nH]c2ccccc12)C(=O)O)NC(Cc1c(Sc2ccc([N+](=O)[O-])cc2)[nH]c2ccccc12)C(=O)O (stereo not shown) [Compound 1]	> 100 µM	21.4 ± 9.45 µM	21.4 ± 9.5 µM	18.5 ± 3.5 µM	–	> 100 µM	–	–	significant antiviral activity in the absence of cytotoxicity	–	–	–	–
NCC(=O)NC(CCC(=O)NC(Cc1c(Sc2ccccc2[N+](=O)[O-])[nH]c2ccccc12)C(=O)O)(CCC(=O)NC(Cc1c(Sc2ccccc2[N+](=O)[O-])[nH]c2ccccc12)C(=O)O)CCC(=O)NC(Cc1c(Sc2ccccc2[N+](=O)[O-])[nH]c2ccccc12)C(=O)O (stereo not shown) [Compound 36]	–	> 100 µM	–	–	–	–	–	–	–	–	–	–	–
CCCCCC(=O)NCC(=O)NC(CCC(=O)NC(Cc1c(Sc2ccc([N+](=O)[O-])cc2)[nH]c2ccccc12)C(=O)O)(CCC(=O)NC(Cc1c(Sc2ccc([N+](=O)[O-])cc2)[nH]c2ccccc12)C(=O)O)CCC(=O)NC(Cc1c(Sc2ccc([N+](=O)[O-])cc2)[nH]c2ccccc12)C(=O)O (stereo not shown) [Compound 56]	> 100 µM	18.9 ± 6.8 µM	–	8.3 ± 1.1 µM	–	> 100 µM	–	–	–	–	–	–	–
O=C(CCOCCOCCOCCOCCC(=O)NCC(=O)NC(CCC(=O)NC(Cc1c(Sc2ccc([N+](=O)[O-])cc2)[nH]c2ccccc12)C(=O)O)(CCC(=O)NC(Cc1c(Sc2ccc([N+](=O)[O-])cc2)[nH]c2ccccc12)C(=O)O)CCC(=O)NC(Cc1c(Sc2ccc([N+](=O)[O-])cc2)[nH]c2ccccc12)C(=O)O)NCC(=O)NC(CCC(=O)NC(Cc1c(Sc2ccc([N+](=O)[O-])cc2)[nH]c2ccccc12)C(=O)O)(CCC(=O)NC(Cc1c(Sc2ccc([N+](=O)[O-])cc2)[nH]c2ccccc12)C(=O)O)CCC(=O)NC(Cc1c(Sc2ccc([N+](=O)[O-])cc2)[nH]c2ccccc12)C(=O)O (stereo not shown) [Compound 65]	> 100 µM	0.28 ± 0.23 µM	0.3 ± 0.2 µM	15.8 ± 1.5 µM	–	> 100 µM	shift of the curve toward lower temperatures	–	–	~10 fold	6.24 ± 0.16 µM	< 10 µM	0.28 ± 0.23 µM
CCCCCCCCCC(=O)NCC(=O)NC(CCC(=O)NC(Cc1c(Sc2ccc([N+](=O)[O-])cc2)[nH]c2ccccc12)C(=O)O)(CCC(=O)NC(Cc1c(Sc2ccc([N+](=O)[O-])cc2)[nH]c2ccccc12)C(=O)O)CCC(=O)NC(Cc1c(Sc2ccc([N+](=O)[O-])cc2)[nH]c2ccccc12)C(=O)O (stereo not shown) [Compound 58]	> 100 µM	21 ± 8.7 µM	–	9.8 ± 4.3 µM	–	> 100 µM	–	–	–	–	–	–	–
N#Cc1ccc(Sc2[nH]c3ccccc3c2CC(NC(=O)CCC(CCC(=O)NC(Cc2c(Sc3ccc(C#N)cc3)[nH]c3ccccc23)C(=O)O)(CCC(=O)NC(Cc2c(Sc3ccc(C#N)cc3)[nH]c3ccccc23)C(=O)O)NC(=O)CN)C(=O)O)cc1 (stereo not shown) [Compound 39]	> 100 µM	33.6 ± 7.2 µM	–	34.9 ± 8.7 µM	–	> 100 µM	–	–	–	–	–	–	–
NCCOCCOCCC(=O)NCC(=O)NC(CCC(=O)NC(Cc1c(Sc2ccc([N+](=O)[O-])cc2)[nH]c2ccccc12)C(=O)O)(CCC(=O)NC(Cc1c(Sc2ccc([N+](=O)[O-])cc2)[nH]c2ccccc12)C(=O)O)CCC(=O)NC(Cc1c(Sc2ccc([N+](=O)[O-])cc2)[nH]c2ccccc12)C(=O)O (stereo not shown) [Compound 63]	> 100 µM	0.7 ± 0.9 µM	–	1.4 ± 1.1 µM	–	> 100 µM	–	–	–	–	25.4 µM	–	0.01 µM
NCC(=O)NC(CCC(=O)NC(Cc1c(Sc2cccc([N+](=O)[O-])c2)[nH]c2ccccc12)C(=O)O)(CCC(=O)NC(Cc1c(Sc2cccc([N+](=O)[O-])c2)[nH]c2ccccc12)C(=O)O)CCC(=O)NC(Cc1c(Sc2cccc([N+](=O)[O-])c2)[nH]c2ccccc12)C(=O)O (stereo not shown) [Compound 37]	> 100 µM	37.1 ± 15.9 µM	–	8.6 ± 4.7 µM	–	> 100 µM	–	–	–	–	–	–	–
NCC(=O)NC(CCC(=O)NC(Cc1c(Sc2ccc(C(F)(F)F)cc2)[nH]c2ccccc12)C(=O)O)(CCC(=O)NC(Cc1c(Sc2ccc(C(F)(F)F)cc2)[nH]c2ccccc12)C(=O)O)CCC(=O)NC(Cc1c(Sc2ccc(C(F)(F)F)cc2)[nH]c2ccccc12)C(=O)O (stereo not shown) [Compound 38]	> 100 µM	27.6 ± 12.6 µM	–	11.6 ± 4.8 µM	–	> 100 µM	shift of the curve toward lower temperatures	–	–	–	–	–	–
CCCCCCCC(=O)NCC(=O)NC(CCC(=O)NC(Cc1c(Sc2ccc([N+](=O)[O-])cc2)[nH]c2ccccc12)C(=O)O)(CCC(=O)NC(Cc1c(Sc2ccc([N+](=O)[O-])cc2)[nH]c2ccccc12)C(=O)O)CCC(=O)NC(Cc1c(Sc2ccc([N+](=O)[O-])cc2)[nH]c2ccccc12)C(=O)O (stereo not shown) [Compound 57]	> 100 µM	23.5 ± 3.8 µM	–	11.1 ± 5 µM	–	> 100 µM	shift of the curve toward lower temperatures	–	–	–	–	–	–
O=C(CCC(CCC(=O)NC(Cc1c(Sc2ccc([N+](=O)[O-])cc2)[nH]c2ccccc12)C(=O)O)(CCC(=O)NC(Cc1c(Sc2ccc([N+](=O)[O-])cc2)[nH]c2ccccc12)C(=O)O)[N+](=O)[O-])NC(Cc1c(Sc2ccc([N+](=O)[O-])cc2)[nH]c2ccccc12)C(=O)O (stereo not shown) [Compound 3]	–	32.9 ± 4.48 µM	32.9 ± 4.5 µM	–	–	> 100 µM	–	–	effective	–	–	–	–
CC(=O)c1ccc(Sc2[nH]c3ccccc3c2CC(NC(=O)CCC(CCC(=O)NC(Cc2c(Sc3ccc(C(C)=O)cc3)[nH]c3ccccc23)C(=O)O)(CCC(=O)NC(Cc2c(Sc3ccc(C(C)=O)cc3)[nH]c3ccccc23)C(=O)O)NC(=O)CN)C(=O)O)cc1 (stereo not shown) [Compound 41]	> 100 µM	~2 µM	3 ± 1.9 µM	~2 µM	2.3 ± 1.7 µM	> 100 µM	shift of the curve toward lower temperatures; also recorded: thermally destabilized the RBD	–	–	–	–	–	–
NCC(=O)NC(CCC(=O)NC(Cc1c(-c2ccc([N+](=O)[O-])cc2)[nH]c2ccccc12)C(=O)O)(CCC(=O)NC(Cc1c(-c2ccc([N+](=O)[O-])cc2)[nH]c2ccccc12)C(=O)O)CCC(=O)NC(Cc1c(-c2ccc([N+](=O)[O-])cc2)[nH]c2ccccc12)C(=O)O (stereo not shown) [Compound 46]	–	> 50 µM	–	–	–	–	–	antiviral activity is also lost	–	–	–	–	–
